Experimental data reported in patent US20240197666A1, “DITERPENOID COMPOUNDS THAT ACT ON PROTEIN KINASE C (PKC)” (K-Gen Therapeutics, Inc., priority 2021, published 2024).

Legend:
[1] = system: phosphorylation of PKCμ, PKCδ and Erk1/2 in A549 lung cancer cells; assay: Western blot of activation of PKC and downstream target protein in A549 cells; assay type: cell-based; conditions: 0.3 μM, 30 minutes
Procedure: According to the methods described in patent (WO/2017/083783) A549 lung cancer cells (˜3 million cells) were seeded in 10 cm tissue culture dishes (or ˜1 million cells in 6 cm dish) and grown overnight. Cells were then treated with different drugs at indicated concentrations for 30 minutes. Cell lysate preparation, protein quantitation, SDS-PAGE, and Western blotting procedures are described (WO/2017/083783). β-actin or Vinculin was used as loading controls. Imagequant LAS4000 (GE) was used to scan membranes if secondary antibodies anti-mouse IgG HRP conjugate or anti-rabbit IgG HRP conjugate (dilutions from 1:2000-1:10000) were used. For ProteinSimple Wes system, manufacture's procedure was followed (ProteinSimple 12-230 kDa Wes Separation Module) for sample preparation, loading, running, and data analysis.
Phosphorylation of these sites has been linked to acute activation or catalytic activity of the PKC isoforms and Erk1/2. High level of phosphorylation indicates strong activation.
A subset of the diterpenoid compounds with good binding affinity to novel PKC isoforms and PKCμ was tested at two different concentrations in A549 cells to assess activation of PKCμ, PKCδ, and Erk1/2 by Western blot analysis. In addition to the phospho-specific antibodies described above, an additional phospho-specific antibody P-PKCδ (S299) (Abcam cat #133456) was also used. This antibody has been shown in the literature (Durgan et al., FEBS Lett. 2007, 581(18):3377-81, Novel phosphorylation site markers of protein kinase C delta activation) to be able to detect activation of PKCδ. K-101 (prostratin, 1 μM) was included as reference compounds.

MC38 tumors = assay: MC38 syngeneic model, efficacy and re-challenge; assay type: in vivo, mouse; conditions: for Live Animal at Day 50: N 8
Procedure: 8 weeks old female C57B/J6J mice were implanted subcutaneously at the right flank with 3×10^5 MC38 mouse colon cancer cells. Mice were randomized into different treatment groups (see above) when tumors grew to an average mean tumor size of 50-80 mm^3. Tumor size was measured three times weekly in two dimensions using a caliper, and the volume was expressed in mm^3 using the formula: V=0.5a×b^2 where a and b are the long and short diameters of the tumor, respectively. Mice were monitored daily for clinical signs and body weights were measured twice per week. All groups tolerated drug treatments very well with less than 10% body weight loss. […] Scabs formed near the site of IT injection and the skin recovered with minimal scaring within 3-4 weeks.
For the efficacy portion of the study, the major endpoint was the animal survival, defined as time to death or euthanasia when tumors ≥2000 mm^3. The survive rate is the proportion of live animals in each group on a given day. A Kaplan-Meier analysis was performed to compare animal survival between vehicle and treated groups. P<0.05 was considered to be statistically significant. Another endpoint is tumor clearance, for which the mice were monitor for over 50 days after the start of the treatment.
To test if anti-tumor immunity was developed in the cured mice, the re-challenge portion of the study was conducted. The major endpoint was the tumor initiation of the re-implanted tumor cells. Tumor fee survive rate is the proportion of tumor fee mice and the mice whose tumor volumes were below 50 mm^3 in each group on a given day. A Mann-Whitney method was performed to analyze the tumor initiation rate at the end of the re-challenge study and P<0.05 was considered to be statistically significant.
MC38 cells (3×10^5) were re-implanted subcutaneously to the other flank (left flank) of the 8 tumor-eradicated mice (two from group 2, three each from groups 3 and 5). No MC38 tumors formed after 36 days in these 8 tumor-eradicated mice. To study the anti-tumor immunity further in the 8 tumor-eradicated mice, MC38 cells (3×10^5) and unrelated 3LL cells (lung cancer) (2×10^6) were re-implanted and implanted at opposite flanks in these mice. As control, five age-matched naïve mice were implanted with 3LL and MC38 tumor cells at opposite flanks. The re-challenge for control and K1K1-C1348101 groups were performed independently, but with same method and condition.

4T1-luc2 tumor = assay: 4T1-luc2 orthotopic breast cancer metastasis model, IT injection; assay type: in vivo, mouse
Source text: Syngeneic mouse models are frequently used in assessing effect of immune-modulating compounds because both innate and adaptive immune systems are intact in the wild-type mouse strains.
Each 6-8 weeks old female Balb/c mouse was surgically implanted with 1×10^6 4T1-luc2 tumor cells in the abdominal 4th right mammary fat pad for tumor development. The animals were randomized and treatments were started when the average tumor volume reached 86 mm^3. The group assignment, treatment dose, and schedule were as follows:
Mice were monitored daily for clinical signs and body weights were measured regularly as an indirect measure of toxicity. […] .
After grouping, the bioluminescence measurements were taken once per week to monitor tumor growth in the fat pads and metastasis to other organs. Briefly, the mice were weighted and intra-peritoneal injected with luciferin at 150 mg/kg. 10 minutes after the luciferin administration, the animals were pre-anesthetized with the mixture gas of oxygen and isoflurane. The animals were moved into the imaging chamber for bioluminescence measurements with IVIS (Lumina II) in a complete anesthetic state. […] The bioluminescence signal decreased to the baseline range from the third week in three animals. These three animals were monitored for 87 days and their primary tumors were cured without any metastasis (FIG. 9B-9D). […] However, all tumors in the vehicle group mice kept growing, had steady increase in the bioluminescence signals, and had metastasized before mice died before day 40. A Kaplan-Meier method was used to analyze the animal survival rate between the vehicle group (n=12) and the treated group (n=11, one animal died unexpectedly due to animal attacking). The median survival day is 35.5 for the vehicle group and is 42 for the treated group (P<0.05).

[2] = re-challenge of 8 tumor-eradicated mice with 3LL cells
[3] = re-challenge of 8 tumor-eradicated mice with MC38 cells

Compound: CC1=C[C@H]2[C@@]3(O)[C@H](C)C[C@]4(OC(=O)[C@@H](N)CC5CCCCC5)[C@H]([C@@H]3C=C(CO)C[C@]2(O)C1=O)C4(C)C
- phosphorylation of PKCμ, PKCδ and Erk1/2 [1]: induced high levels of phosphorylation

Compound: CC1=C[C@H]2[C@@]3(O)[C@H](C)C[C@]4(OC(=O)[C@@H](N)C5Cc6ccccc6C5)[C@H]([C@@H]3C=C(CO)C[C@]2(O)C1=O)C4(C)C
- phosphorylation of PKCμ, PKCδ and Erk1/2 [1]: induced high levels of phosphorylation

Compound: CC1=C[C@H]2[C@@]3(O)[C@H](C)C[C@]4(OC(=O)[C@H](N)CCCCCCc5ccccc5)[C@H]([C@@H]3C=C(CO)C[C@]2(O)C1=O)C4(C)C
- complete eradication of tumors (MC38 tumors; group 2 (5 mg/ml), 2 out of 8 tumors): 25%
- % Increased Survival Time (MC38 tumors; group 2: 5 mg/ml, 20 μl it): 45%
- Increased Survival Time (MC38 tumors; group 2: 5 mg/ml, 20 μl it): 9 days
- Median (MC38 tumors; group 2: 5 mg/ml, 20 μl it): 29 days
- Live Animal at Day 50 (MC38 tumors; group 2: 5 mg/ml, 20 μl it, D 0,1,2,7,8,9): 2
- complete eradication of tumors (MC38 tumors; group 3 (20 mg/ml), 3 out of 8 tumors): 37.5%
- % Increased Survival Time (MC38 tumors; group 3: 20 mg/ml, 20 μl): 23%
- Increased Survival Time (MC38 tumors; group 3: 20 mg/ml, 20 μl): 4.5 days
- Median (MC38 tumors; group 3: 20 mg/ml, 20 μl): 24.5 days
- Live Animal at Day 50 (MC38 tumors; group 3: 20 mg/ml, 20 μl, D 0,1,2): 3
- Tumor initiation (mice) (MC38 tumors; [2]): 8
- Tumor-free (mice) (MC38 tumors; [2]): 0
- Tumor initiation (mice) (MC38 tumors; [3]): 0
- Tumor-free (mice) (MC38 tumors; [3]): 8
- mean body weight loss (4T1-luc2 tumor; 20 mg/ml, 20 μl (400 μg) IT, Balb/c mice): less than 10%
- median survival day (4T1-luc2 tumor; 20 mg/ml, 20 μl (400 μg) IT, n=11): 42 days
- animals with primary tumors cured without any metastasis (4T1-luc2 tumor; monitored for 87 days, single IT treatment): three
